Data published in PMC12362783 (Advanced Science, 2025).

Key:
[1] = test system: MDA‐MB‐468 xenograft tumors; experiment: Immunohistochemistry staining of xenograft tumors; format: in vivo, mice
Procedure: The isolated tumor tissue was fixed in 4% paraformaldehyde for 24 h, dehydrated, embedded, and sliced. After deparaffinization, Ki67 (GB121141‐50, Servicebio), γH2AX (GB111841‐50, Servicebio), CD8 (GB15068‐50, Servicebio), or Cleaved‐caspase‐3 antibody (CST#9661) were incubated at 4 °C overnight, rinsed three times with PBS, and incubated with the secondary antibody. A DAB substrate solution was applied to the slide sections to reveal the antibody staining color. The tissue slide was dehydrated four times with alcohol. The tissue slides were then cleared three times in xylene and mounted with a mounting solution. The mounted slides could be stored at room temperature indefinitely. The immunohistochemical images were obtained under the microscope (Nikon DS‐Ri1).

MDA‐MB‐231 cells [2] = experiment: Cell cycle assay, flow cytometry (PI); format: cell-based; details: MDA‐MB‐231, 48 h; A7, B8 0.5 and 1.0 µM, controls 1.0 µM
Procedure: (§1) The cell cycle analysis was performed with cells seeded in 6‐well plates in growth media. The cells were allowed to attach overnight (8 h). The cultures were treated with different tested drugs for 48 h. After treatment, cells were collected and fixed with 70% pre‐cold ethanol in PBS and stored at −20 °C overnight. Then washed the cells with PBS twice, and incubated with 100 µg mL^−1 RNase A at 37 °C for 1 h, stained with propidium iodide for 30 min avoid light at room temperature. The stained cells were analyzed by flow cytometry. The percentages of cells in the G1, S, and G2/M phases were determined. The data were analyzed by FlowJo software (Tree Star, Inc., Ashland, OR).

MDA‐MB‐468 cells = experiment: Cell cycle assay, flow cytometry (PI); format: cell-based; details: MDA‐MB‐468, 48 h; A7, B8 0.5 and 1.0 µM, controls 1.0 µM
Procedure: as §1

MDA‐MB‐468 xenograft = experiment: MDA‐MB‐468 xenografted mice model, antitumor efficacy; format: in vivo; details: 28 days
Procedure: Anticancer efficacy experiment in MDA‐MB‐468 Xenografted mice model was performed by Shanghai Medicilon Inc. All animal experiments in this study were conducted in strict accordance with national animal welfare regulations and were approved by the institutional animal ethics committee (Approval number: IACUC‐HZN2401P; Approval Date: 2024‐10‐18). MDA‐MB‐468 cells (1 × 10^7) were implanted in the right flanks subcutaneously in female nude mice. When the implanted tumor grew to a volume of 110 mm^3, the animals were randomly divided into four groups, each group containing four animals. Compound B8 was intraperitoneally (IP) administered at two different doses, bis in die (BID) for 28 days: low dose: 25 mg k^−1g and high dose 50 mg k^−1g. […] Tumor size and body weights were measured twice a week. On day 28, the mice were euthanized, tumors were harvested and weighed, and vital organs (heart, liver, spleen, lung, and kidney) were collected. Processed samples were saved for further safety evaluation.

PARP1 = PARP1 (Homo sapiens, UniProt P09874); experiment: PARP enzymatic inhibition ELISA (PARP1); format: biochemical; details: n = 3, mean ± SD
PARP1, sequence (P09874 whole entry): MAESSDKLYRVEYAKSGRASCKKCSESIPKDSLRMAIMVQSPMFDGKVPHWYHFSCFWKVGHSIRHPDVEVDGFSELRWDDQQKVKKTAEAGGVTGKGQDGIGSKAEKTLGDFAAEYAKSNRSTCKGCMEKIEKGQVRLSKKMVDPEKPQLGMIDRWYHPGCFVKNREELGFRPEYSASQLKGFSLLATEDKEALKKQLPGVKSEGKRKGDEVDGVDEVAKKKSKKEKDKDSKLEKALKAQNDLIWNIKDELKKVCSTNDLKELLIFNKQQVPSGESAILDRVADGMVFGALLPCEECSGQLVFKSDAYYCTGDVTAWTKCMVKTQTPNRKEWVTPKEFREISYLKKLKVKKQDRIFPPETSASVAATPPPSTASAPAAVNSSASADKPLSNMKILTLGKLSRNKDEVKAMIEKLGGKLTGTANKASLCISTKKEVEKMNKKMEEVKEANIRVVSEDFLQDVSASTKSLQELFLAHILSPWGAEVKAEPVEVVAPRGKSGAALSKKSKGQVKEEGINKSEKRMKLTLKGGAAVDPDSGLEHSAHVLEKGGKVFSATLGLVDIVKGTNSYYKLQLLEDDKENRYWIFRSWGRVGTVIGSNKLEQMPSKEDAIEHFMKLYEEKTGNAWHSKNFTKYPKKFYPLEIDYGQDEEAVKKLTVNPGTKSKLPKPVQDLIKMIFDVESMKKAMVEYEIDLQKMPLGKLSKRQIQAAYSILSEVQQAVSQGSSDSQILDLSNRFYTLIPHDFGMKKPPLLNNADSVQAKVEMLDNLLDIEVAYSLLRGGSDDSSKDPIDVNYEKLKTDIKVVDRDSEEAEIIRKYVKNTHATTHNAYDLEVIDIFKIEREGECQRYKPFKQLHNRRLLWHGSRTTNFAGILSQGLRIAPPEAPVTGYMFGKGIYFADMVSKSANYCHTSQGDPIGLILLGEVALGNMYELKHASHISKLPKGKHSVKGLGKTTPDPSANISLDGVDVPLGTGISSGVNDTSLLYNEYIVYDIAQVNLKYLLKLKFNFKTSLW

PI3Kα = PI3Kα (Homo sapiens, UniProt P42336); experiment: PIKK family kinase selectivity; format: biochemical
PI3Kα, sequence (P42336 whole entry, species assumed): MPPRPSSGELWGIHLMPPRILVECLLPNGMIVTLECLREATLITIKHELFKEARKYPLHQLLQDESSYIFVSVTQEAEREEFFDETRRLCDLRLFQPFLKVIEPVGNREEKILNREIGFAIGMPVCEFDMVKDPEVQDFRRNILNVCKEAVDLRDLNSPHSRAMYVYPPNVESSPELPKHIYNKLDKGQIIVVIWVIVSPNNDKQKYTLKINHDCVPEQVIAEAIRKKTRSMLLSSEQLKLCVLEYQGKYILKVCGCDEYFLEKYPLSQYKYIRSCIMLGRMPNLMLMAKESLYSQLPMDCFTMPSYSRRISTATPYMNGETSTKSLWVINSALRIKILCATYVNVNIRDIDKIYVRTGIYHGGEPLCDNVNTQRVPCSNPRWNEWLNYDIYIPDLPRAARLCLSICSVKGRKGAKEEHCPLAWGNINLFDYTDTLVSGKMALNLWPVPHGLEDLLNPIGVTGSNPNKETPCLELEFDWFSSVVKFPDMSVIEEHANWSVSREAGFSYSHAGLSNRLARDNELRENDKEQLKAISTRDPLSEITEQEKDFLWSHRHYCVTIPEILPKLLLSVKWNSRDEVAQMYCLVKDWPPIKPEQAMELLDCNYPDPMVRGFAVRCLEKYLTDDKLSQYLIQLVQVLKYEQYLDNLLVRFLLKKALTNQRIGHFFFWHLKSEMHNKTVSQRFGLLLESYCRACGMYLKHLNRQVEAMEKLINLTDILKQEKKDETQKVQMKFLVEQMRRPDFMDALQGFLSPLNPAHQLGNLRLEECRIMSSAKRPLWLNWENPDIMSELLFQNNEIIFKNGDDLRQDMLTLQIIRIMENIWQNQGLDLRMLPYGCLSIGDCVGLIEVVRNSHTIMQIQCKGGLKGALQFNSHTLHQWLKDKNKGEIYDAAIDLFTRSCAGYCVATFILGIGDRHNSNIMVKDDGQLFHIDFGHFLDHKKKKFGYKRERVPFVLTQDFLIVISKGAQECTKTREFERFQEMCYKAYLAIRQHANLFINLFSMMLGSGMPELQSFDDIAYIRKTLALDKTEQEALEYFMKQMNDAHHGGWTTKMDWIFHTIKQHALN
PI3Kα, sequence (P27986 whole entry partner, species assumed): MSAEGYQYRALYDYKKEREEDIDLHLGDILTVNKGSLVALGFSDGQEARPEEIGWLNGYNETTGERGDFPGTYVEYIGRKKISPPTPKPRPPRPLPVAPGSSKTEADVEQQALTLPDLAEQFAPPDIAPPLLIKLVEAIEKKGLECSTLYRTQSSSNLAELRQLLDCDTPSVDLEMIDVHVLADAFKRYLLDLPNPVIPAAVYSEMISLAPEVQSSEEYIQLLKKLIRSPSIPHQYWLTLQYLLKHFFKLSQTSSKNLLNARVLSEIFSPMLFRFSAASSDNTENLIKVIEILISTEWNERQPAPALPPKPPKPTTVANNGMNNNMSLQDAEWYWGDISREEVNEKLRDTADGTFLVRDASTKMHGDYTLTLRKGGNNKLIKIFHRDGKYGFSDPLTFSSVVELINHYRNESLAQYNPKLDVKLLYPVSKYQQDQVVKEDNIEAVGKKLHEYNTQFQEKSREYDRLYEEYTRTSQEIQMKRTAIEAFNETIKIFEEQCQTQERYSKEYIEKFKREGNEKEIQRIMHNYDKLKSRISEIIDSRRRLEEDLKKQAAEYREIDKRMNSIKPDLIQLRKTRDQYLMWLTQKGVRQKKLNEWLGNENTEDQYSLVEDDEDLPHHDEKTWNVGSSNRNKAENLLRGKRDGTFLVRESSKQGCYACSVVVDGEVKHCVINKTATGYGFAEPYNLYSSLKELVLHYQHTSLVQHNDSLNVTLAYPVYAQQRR

MDA‐MB‐231 cells [3] = experiment: Wound‐healing and transwell migration assay; format: cell-based; details: vs AZD6738 and Olaparib alone or their combination
Procedure: For the wound‐healing assay, MDA‐MB‐231 cells were seeded into 6‐well plates and grown to 80% confluence. A scratch was made in the cell monolayer using a 20 µL pipette tip, and the cells were washed with PBS to remove floating cells and debris. The cells were then incubated in serum‐free medium. Cells are divided into control and drug treatment Cells in the scratched area were imaged at 0 and 48 h using microscopy, and the distance traveled by cells at the leading edge of the wound at each time point was measured. To assess cell migration, a transwell assay was performed. […] Following 24 h of incubation, the filters were fixed in 4% paraformaldehyde, stained with 0.1% crystal violet, and then imaged and counted under a microscope to determine the number of invading cells. To assess cell invasion, the transwell plate was coated with a layer of Matrigel, and the rest procedure is similar to what has been described above.

MDA‐MB‐468 = experiment: Cell growth inhibition, CellTiter‐Glo (CTG); format: cell-based
Procedure: (§2) All cells were grown in a humidified incubator at 37 °C and 5% CO2.
(§3) […] […] Relative viability was calculated by normalizing the raw luminescence counts of the treated groups to those of the DMSO control groups. IC₅₀ values were calculated using sigmoidal dose‐response curve fitting with GraphPad Prism 9.0 software.

MDA‐MB‐231 = experiment: Cell growth inhibition, CellTiter‐Glo (CTG); format: cell-based
Procedure: as §2, §3

[4] = 24, 48, 72 h treatment, Figure S2

C[C@@H]1COCCN1c1cc(CNC(=O)c2ccc(C(=O)N3CCN(C(=O)c4cc(Cc5n[nH]c(=O)c6ccccc56)ccc4F)CC3)cc2)nc(-c2ccnc3[nH]ccc23)n1 [Compound B8, (R)‐4‐(4‐(2‐fluoro‐5‐((4‐oxo‐3,4‐dihydrophthalazin‐1‐yl)methyl)benzoyl)piperazine‐1‐carbonyl)‐N‐((6‐(3‐methylmorpholino)‐2‐(1H‐pyrrolo[2,3‐b]pyridin‐4‐yl)pyrimidin‐4‐yl)methyl) benzamide]
CD8 expression in tumor tissues (IHC) [1]: increased the levels of CD8 expression
Ki67, γH2AX and cleaved‐caspase 3 expression in tumors (IHC) [1]: decreased Ki67 expression and increased γH2AX and cleaved‐caspase 3 expression
effect on cell cycle distribution (MDA‐MB‐231 cells [2]): markedly increased the proportion of G2/M phase cells
effect on cell cycle distribution (MDA‐MB‐468 cells): markedly increased the proportion of G2/M phase cells
tumor growth inhibition rate (TGI) (MDA‐MB‐468 xenograft; B8 50 mg/kg I.P., female nude mice): 68.36%
tumor weight and volume (MDA‐MB‐468 xenograft; B8‐treated mice): significantly lower than control groups
IC50 (PARP1): 0.38 ± 0.08 nM
IC50 (PI3Kα): > 2500 nM
migratory capacity (MDA‐MB‐231 cells [3]): superior inhibitory effect on the migratory capacity
anti‐proliferation effect at different time points (MDA‐MB‐468; [4]): exerted anti‐proliferation activity
IC50 (MDA‐MB‐468; Homo sapiens, MDA-MB-468, 120 h, CTG, 5 days, n = 3): 320 ± 10 nM
anti‐proliferation effect at different time points (MDA‐MB‐231; [4]): exerted anti‐proliferation activity
IC50 (MDA‐MB‐231; Homo sapiens, MDA-MB-231, 120 h, read-out: IC50 MDA‐MB‐231, CTG, 5 days, n = 3): 1890 ± 130 nM
